Results from PubChem BioAssay (NCI).
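Compound exposure: 48 hours, 5 concentrations, 96-well plates. At the TGI there is no net growth.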

How the values were obtained:
Assay in all cases: NCI anticancer screen, dose series, 48 h
COLO 205 colon = tested on: COLO 205 colon
HCT-15 colon = tested on: HCT-15 colon
OVCAR-3 ovarian = tested on: OVCAR-3 ovarian
SN12C renal = tested on: SN12C renal
MALME-3M melanoma = tested on: MALME-3M melanoma
K-562 leukemia = tested on: K-562 leukemia
ACHN renal = tested on: ACHN renal
SK-MEL-2 melanoma = tested on: SK-MEL-2 melanoma
RPMI-8226 leukemia = tested on: RPMI-8226 leukemia
M14 melanoma = tested on: M14 melanoma
CCRF-CEM leukemia = tested on: CCRF-CEM leukemia
SF-539 CNS = tested on: SF-539 CNS
M19-MEL melanoma = tested on: M19-MEL melanoma
OVCAR-5 ovarian = tested on: OVCAR-5 ovarian
XF 498 CNS = tested on: XF 498 CNS
RXF-631 renal = tested on: RXF-631 renal
SR leukemia = tested on: SR leukemia
NCI-H522 lung = tested on: NCI-H522 lung
A549 NSCLC = tested on: A549 NSCLC
SF-268 CNS = tested on: SF-268 CNS
KM12 colon = tested on: KM12 colon
DLD-1 colon = tested on: DLD-1 colon
SF-295 CNS = tested on: SF-295 CNS
UO-31 renal = tested on: UO-31 renal
SNB-78 CNS = tested on: SNB-78 CNS
HCC-2998 colon = tested on: HCC-2998 colon
HOP-92 NSCLC = tested on: HOP-92 NSCLC
HOP-18 NSCLC = tested on: HOP-18 NSCLC
OVCAR-8 ovarian = tested on: OVCAR-8 ovarian
HL-60(TB) leukemia = tested on: HL-60(TB) leukemia
MOLT-4 leukemia = tested on: MOLT-4 leukemia
SNB-75 CNS = tested on: SNB-75 CNS
NCI-H23 lung = tested on: NCI-H23 lung
SK-MEL-28 melanoma = tested on: SK-MEL-28 melanoma
SNB-19 CNS = tested on: SNB-19 CNS
RXF 393 renal = tested on: RXF 393 renal
SW-620 colon = tested on: SW-620 colon
786-0 renal = tested on: 786-0 renal
UACC-257 melanoma = tested on: UACC-257 melanoma
EKVX NSCLC = tested on: EKVX NSCLC
DMS 114 small cell lung = tested on: DMS 114 small cell lung
NCI-H226 lung = tested on: NCI-H226 lung
HCT-116 colon = tested on: HCT-116 colon
SK-MEL-5 melanoma = tested on: SK-MEL-5 melanoma
HT29 colon = tested on: HT29 colon
KM20L2 colon = tested on: KM20L2 colon
U251 CNS = tested on: U251 CNS
SK-OV-3 ovarian = tested on: SK-OV-3 ovarian
UACC-62 melanoma = tested on: UACC-62 melanoma
HOP-62 NSCLC = tested on: HOP-62 NSCLC
IGROV1 ovarian = tested on: IGROV1 ovarian
A498 renal = tested on: A498 renal
LXFL 529 NSCLC = tested on: LXFL 529 NSCLC
TK-10 renal = tested on: TK-10 renal
DMS 273 small cell lung = tested on: DMS 273 small cell lung
LOX IMVI melanoma = tested on: LOX IMVI melanoma
NCI-H460 lung = tested on: NCI-H460 lung
OVCAR-4 ovarian = tested on: OVCAR-4 ovarian

For COc1ccc(Br)c(CN2CCc3ccccc32)c1OS(=O)(=O)c1ccc(C)cc1, the TGI (COLO 205 colon) was 33.8 µM, the TGI (HCT-15 colon) was greater than 100 µM and the TGI (OVCAR-3 ovarian) was 75.9 µM. It also gave a TGI (SN12C renal) greater than 100 µM, a TGI (MALME-3M melanoma) greater than 100 µM and a TGI (K-562 leukemia) greater than 100 µM. For the same compound, the TGI (ACHN renal) was greater than 100 µM, the TGI (SK-MEL-2 melanoma) was greater than 100 µM and the TGI (RPMI-8226 leukemia) was greater than 100 µM. For the same compound, the TGI (M14 melanoma) was greater than 100 µM, the TGI (CCRF-CEM leukemia) was greater than 100 µM and the TGI (SF-539 CNS) was 57.8 µM. It also gave a TGI (M19-MEL melanoma) greater than 100 µM, a TGI (OVCAR-5 ovarian) greater than 100 µM and a TGI (XF 498 CNS) of 92 µM. For the same compound, the TGI (RXF-631 renal) was greater than 100 µM, the TGI (SR leukemia) was greater than 100 µM and the TGI (NCI-H522 lung) was 30.8 µM. For the same compound, the TGI (A549 NSCLC) was greater than 100 µM, the TGI (SF-268 CNS) was greater than 100 µM and the TGI (KM12 colon) was greater than 100 µM. The TGI (DLD-1 colon) was greater than 100 µM, the TGI (SF-295 CNS) was greater than 100 µM and the TGI (UO-31 renal) was greater than 100 µM. The TGI (SNB-78 CNS) was greater than 100 µM, the TGI (HCC-2998 colon) was greater than 100 µM and the TGI (HOP-92 NSCLC) was greater than 100 µM. It also gave a TGI (HOP-18 NSCLC) greater than 100 µM, a TGI (OVCAR-8 ovarian) greater than 100 µM and a TGI (HL-60(TB) leukemia) greater than 100 µM. For the same compound, the TGI (MOLT-4 leukemia) was greater than 100 µM, the TGI (SNB-75 CNS) was 88.8 µM and the TGI (NCI-H23 lung) was 85.1 µM. For the same compound, the TGI (SK-MEL-28 melanoma) was greater than 100 µM, the TGI (SNB-19 CNS) was greater than 100 µM and the TGI (RXF 393 renal) was 65.7 µM. It also gave a TGI (SW-620 colon) greater than 100 µM, a TGI (786-0 renal) greater than 100 µM and a TGI (UACC-257 melanoma) greater than 100 µM. The TGI (EKVX NSCLC) was greater than 100 µM, the TGI (DMS 114 small cell lung) was 53.5 µM and the TGI (NCI-H226 lung) was greater than 100 µM.
Work on Cc1cc2c(=O)c3ccc(Cl)cc3[nH]c2c(C(N)=O)c1C yielded a TGI (HCT-116 colon) greater than 100 µM, a TGI (COLO 205 colon) greater than 100 µM and a TGI (HCT-15 colon) greater than 100 µM. It also gave a TGI (OVCAR-3 ovarian) greater than 100 µM, a TGI (SN12C renal) greater than 100 µM and a TGI (SK-MEL-5 melanoma) greater than 100 µM. It also gave a TGI (MALME-3M melanoma) greater than 100 µM, a TGI (K-562 leukemia) greater than 100 µM and a TGI (ACHN renal) greater than 100 µM. It also gave a TGI (HT29 colon) greater than 100 µM, a TGI (KM20L2 colon) greater than 100 µM and a TGI (SK-MEL-2 melanoma) greater than 100 µM. The TGI (RPMI-8226 leukemia) was greater than 100 µM, the TGI (U251 CNS) was greater than 100 µM and the TGI (SK-OV-3 ovarian) was greater than 100 µM. It also gave a TGI (UACC-62 melanoma) greater than 100 µM, a TGI (HOP-62 NSCLC) greater than 100 µM and a TGI (M14 melanoma) greater than 100 µM. The TGI (CCRF-CEM leukemia) was greater than 100 µM, the TGI (SF-539 CNS) was greater than 100 µM and the TGI (M19-MEL melanoma) was greater than 100 µM. It also gave a TGI (IGROV1 ovarian) greater than 100 µM, a TGI (OVCAR-5 ovarian) greater than 100 µM and a TGI (XF 498 CNS) greater than 100 µM. For the same compound, the TGI (RXF-631 renal) was greater than 100 µM, the TGI (A498 renal) was greater than 100 µM and the TGI (NCI-H522 lung) was greater than 100 µM. For the same compound, the TGI (A549 NSCLC) was greater than 100 µM, the TGI (SF-268 CNS) was greater than 100 µM and the TGI (KM12 colon) was greater than 100 µM. It also gave a TGI (DLD-1 colon) greater than 100 µM, a TGI (LXFL 529 NSCLC) greater than 100 µM and a TGI (SF-295 CNS) greater than 100 µM. For the same compound, the TGI (UO-31 renal) was greater than 100 µM, the TGI (SNB-78 CNS) was greater than 100 µM and the TGI (HCC-2998 colon) was greater than 100 µM. For the same compound, the TGI (HOP-92 NSCLC) was greater than 100 µM, the TGI (TK-10 renal) was greater than 100 µM and the TGI (OVCAR-8 ovarian) was greater than 100 µM. For the same compound, the TGI (DMS 273 small cell lung) was greater than 100 µM, the TGI (HL-60(TB) leukemia) was greater than 100 µM and the TGI (LOX IMVI melanoma) was greater than 100 µM. For the same compound, the TGI (MOLT-4 leukemia) was greater than 100 µM, the TGI (NCI-H460 lung) was greater than 100 µM and the TGI (SNB-75 CNS) was greater than 100 µM. It also gave a TGI (NCI-H23 lung) greater than 100 µM, a TGI (SK-MEL-28 melanoma) greater than 100 µM and a TGI (SNB-19 CNS) greater than 100 µM. It also gave a TGI (OVCAR-4 ovarian) greater than 100 µM, a TGI (SW-620 colon) greater than 100 µM and a TGI (786-0 renal) greater than 100 µM. For the same compound, the TGI (UACC-257 melanoma) was greater than 100 µM, the TGI (EKVX NSCLC) was greater than 100 µM and the TGI (DMS 114 small cell lung) was greater than 100 µM.
